Test results published in paper PMC4558116, “Inhibition of COP9-signalosome (CSN) deneddylating activity and tumor growth of diffuse large B-cell lymphomas by doxycycline” (Oncotarget, 2015).
pIC50: −log10 of the molar value.

Target: T1, CSN5 (COP-9 signalosome deneddylase subunit) (Homo sapiens, UniProt Q92905)
T1 construct: gene COPS5; purified CSN complex; with COP9 signalosome (CSN) complex; substrate Nedd8-conjugated SCF^Skp2 (Cullin-1)
Assay: fluorescence polarization deneddylation assay with purified CSN and Oregon Green-Nedd8-SCF^Skp2
Assay type: biochemical

T1 sequence (Q92905 2-334): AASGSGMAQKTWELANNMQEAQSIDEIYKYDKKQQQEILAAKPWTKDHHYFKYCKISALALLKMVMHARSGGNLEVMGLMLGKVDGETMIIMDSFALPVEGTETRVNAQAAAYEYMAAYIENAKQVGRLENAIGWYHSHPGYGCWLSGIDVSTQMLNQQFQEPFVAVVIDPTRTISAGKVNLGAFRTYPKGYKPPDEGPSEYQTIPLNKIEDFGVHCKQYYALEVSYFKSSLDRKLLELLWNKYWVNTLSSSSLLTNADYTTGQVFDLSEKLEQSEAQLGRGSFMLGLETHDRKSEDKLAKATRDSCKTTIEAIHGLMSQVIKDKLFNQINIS

Q: How did the pIC50 turn out when `C[C@H]1c2cccc(O)c2C(=O)C2=C(O)[C@]3(O)C(=O)C(C(N)=O)=C(O)[C@@H](N(C)C)[C@@H]3[C@@H](O)[C@@H]21` [doxycycline] was run?
A: ~3.96
